{"source": "patent US11492338B2", "about": "“Furan surfactant compositions and methods” (SIRONIX RENEWABLES, INC., priority 2020, dated 2022)", "key": {"[1]": {"experiment": "Surface tension at critical micelle concentration", "assay_type": "physicochemical"}, "Krafft point": {"experiment": "Krafft point", "assay_type": "physicochemical", "procedure": "(§1) Synthesized surfactants including the structure depicted in Experimental Structure 1, as well as the corresponding Na, Li, NH4, and Mg surfactants, were tested to determine surfactant properties. These included the time required for the surfactant solution to wet cotton fabric, the amount of foam the surfactant generates when agitated, the tolerance of the surfactant to calcium ions in solution as a measure of surfactant performance in hard water, and the temperature below which the surfactant forms a solid precipitate, known as the Krafft Point."}, "[2]": {"experiment": "Calcium tolerance (Ca^2+ from CaCl2 until sustained precipitate)", "assay_type": "physicochemical", "settings": "ppm of Ca^2+ from CaCl2 where sustained precipitate is noted; for Calcium Tolerance: Table 2; for Ca^2+ Tolerance: Table 3", "procedure": "as §1"}, "[3]": {"experiment": "Critical micelle concentration (CMC)", "assay_type": "physicochemical"}, "[4]": {"experiment": "Solubility in deionized water at 20° C.", "assay_type": "physicochemical"}, "[5]": {"experiment": "Stability tracking of oleo-furan sulfonic acid by liquid chromatography", "assay_type": "physicochemical", "settings": "8-week time course, room temperature and elevated temperature (42° C.)", "from_the_text": "Another advantage of surfactant embodiments disclosed herein is their inherent stability, particularly in the acid form prior to neutralization (oleo-furan sulfonic acids). As noted elsewhere herein, structural stability is an issue in the production of the common anionic surfactant SLES, causing occasional ring closure of the labile ethoxy chain during ethoxylation and sulfation step, which leads to the formation of a carcinogenic byproduct (e.g., 1,4-dioxane).\nThe calcium and magnesium monoanionic surfactants were both observed to have high foaming and foam stability, which is attractive for a number of applications including home cleaning, personal care, detergents, cosmetics, ore floatation and oil recovery. […] Stability of the oleo-furan surfactant, specifically the acid form oleo-furan sulfonic acid that is a precursor to the calcium and other cation surfactants, was measured over an eight week time course at room temperature and elevated temperatures, the results of which can be seen in FIG. 1."}, "[6]": {"settings": "water; common sodium surfactants; cited from earlier work"}}, "note": "Read-outs that look alike come from different tables or passages of the source. Marks after values point to notes of the source that are not given here."}
{"compound": "CCCCCCCCCCCC(=O)c1cc(S(=O)(=O)O)c(C)o1", "note": "[Ca^2+]", "values": [{"measurement": "Surface Tension at critical micelle concentration", "setting": "[1]; Table 2", "value": 33, "unit": "mN/m"}, {"measurement": "Krafft Point", "setting": "Krafft point; Table 2", "value": "<0", "unit": "°C"}, {"measurement": "Calcium Tolerance", "setting": "[2]", "value": ">50,000 ppm"}, {"measurement": "CMC (critical micelle concentration)", "setting": "[3]; Table 2", "value": 300, "unit": "ppm"}, {"measurement": "Solubility", "setting": "[4]; Table 2, read-out: Solubility", "value": 350, "unit": "mg/mL"}]}
{"compound": "CCCCCCCCCCCC(=O)c1cc(S(=O)(=O)[O-])c(C)o1.[Li+]", "note": "[Li^+]", "values": [{"measurement": "Surface Tension at critical micelle concentration", "setting": "[1]; Table 2", "value": 45, "unit": "mN/m"}, {"measurement": "Krafft Point", "setting": "Krafft point; Table 2", "value": "<0", "unit": "°C"}, {"measurement": "Calcium Tolerance", "setting": "[2]", "value": ">50,000 ppm"}, {"measurement": "CMC (critical micelle concentration)", "setting": "[3]; Table 2", "value": 1347, "unit": "ppm"}, {"measurement": "Solubility", "setting": "[4]; Table 2", "value": 300, "unit": "mg/mL"}]}
{"compound": "CCCCCCCCCCCC(=O)c1cc(S(=O)(=O)[O-])c(C)o1.CCCCCCCCCCCC(=O)c1cc(S(=O)(=O)[O-])c(C)o1.[Mg+2]", "note": "[Mg^2+]", "values": [{"measurement": "Surface Tension", "setting": "[1]; Table 2, recorded for saturated surfactant solution at 20° C.", "value": "38* mN/m"}, {"measurement": "Krafft Point", "setting": "Krafft point; Table 2", "value": 20, "unit": "°C"}, {"measurement": "Calcium Tolerance", "setting": "[2]", "value": ">50,000 ppm"}, {"measurement": "Solubility", "setting": "[4]; Table 2", "value": 10, "unit": "mg/mL"}]}
{"compound": "CCCCCCCCCCCC(=O)c1cc(S(=O)(=O)O)c(C)o1.N", "note": "[NH4^+]", "values": [{"measurement": "Surface Tension at critical micelle concentration", "setting": "[1]; Table 2", "value": 39, "unit": "mN/m"}, {"measurement": "Krafft Point", "setting": "Krafft point; Table 2", "value": "<0", "unit": "°C"}, {"measurement": "Calcium Tolerance", "setting": "[2]", "value": ">50,000 ppm"}, {"measurement": "CMC (critical micelle concentration)", "setting": "[3]; Table 2", "value": 3309, "unit": "ppm"}, {"measurement": "Solubility", "setting": "[4]; Table 2", "value": 1000, "unit": "mg/mL"}]}
{"compound": "CCCCCCCCCCCC(=O)c1ccc(S(=O)(=O)[O-])o1.[Na+]", "note": "[Na^+ OFS-12-1/0]", "values": [{"measurement": "Surface Tension at critical micelle concentration", "setting": "[1]; Table 3", "value": 44, "unit": "mN/m"}, {"measurement": "Krafft Point", "setting": "Krafft point; Table 3", "value": "<0", "unit": "°C"}, {"measurement": "Ca^2+ Tolerance", "setting": "[2]", "value": ">50,000 ppm"}, {"measurement": "CMC (critical micelle concentration)", "setting": "[3]; Table 3", "value": 1735, "unit": "ppm"}]}
{"compound": "CCCCCCCCCCCC(=O)c1cc(S(=O)(=O)[O-])c(C)o1.[Na+]", "note": "[Na^+]", "values": [{"measurement": "Surface Tension at critical micelle concentration", "setting": "[1]; Table 2", "value": 42, "unit": "mN/m"}, {"measurement": "Surface Tension at critical micelle concentration", "setting": "[1]; Table 3", "value": 42, "unit": "mN/m"}, {"measurement": "Krafft Point", "setting": "Krafft point; Table 2", "value": "<0", "unit": "°C"}, {"measurement": "Krafft Point", "setting": "Krafft point; Table 3", "value": "<0", "unit": "°C"}, {"measurement": "Calcium Tolerance", "setting": "[2]", "value": ">50,000 ppm"}, {"measurement": "Ca^2+ Tolerance", "setting": "[2]", "value": ">50,000 ppm"}, {"measurement": "CMC (critical micelle concentration)", "setting": "[3]; Table 2", "value": 1480, "unit": "ppm"}, {"measurement": "CMC (critical micelle concentration)", "setting": "[3]; Table 3", "value": 1480, "unit": "ppm"}]}
{"compound": "CCCCCCCCCCCCOCCOCCOCCOS(=O)(=O)[O-].[Na+]", "note": "[SLES, sodium lauryl ether sulfate, reference compound]", "values": [{"measurement": "Surface Tension at critical micelle concentration", "setting": "[1]; Table 2", "value": 32, "unit": "mN/m"}, {"measurement": "Krafft Point", "setting": "Krafft point; Table 2", "value": "<0", "unit": "°C"}, {"measurement": "Calcium Tolerance", "setting": "[2]", "value": ">50,000 ppm"}, {"measurement": "CMC (critical micelle concentration)", "setting": "[3]; Table 2", "value": 449, "unit": "ppm"}, {"measurement": "Solubility", "setting": "[4]; Table 2", "value": "≥1000", "unit": "mg/mL"}]}
{"compound": "CCCCCCCCCCCC(=O)c1cc(S(=O)(=O)O)c(C)o1", "note": "[oleo-furan sulfonic acids]", "values": [{"measurement": "degradation or byproduct formation by liquid chromatography", "setting": "[5]", "value": "negligible degradation or byproduct formation"}]}
{"compound": "sodium dodecylbenzene sulfonate", "values": [{"measurement": "Solubility", "setting": "[6]", "value": 250, "unit": "mg/mL"}]}
